Literature values in patent US20120101089A1, “Anti-Emetic Substance” (priority 2010, published 2012).
“Also recorded” adds a separate entry of the source. Where two headings read alike, the source gives them in different places.

Assays:
[1] = for Adverse Effect: common adverse effects associated with single agents, listed per class; for sedation, droperidol versus ondansetron groups: i.v. ondansetron 4 mg, droperidol 20 μg/kg, outpatient gynaecological laparoscopy
[2] = not given; remark: listed apart in the source
[3] = for prevention of PONV symptoms: i.v. tropisetron 5 mg, droperidol 1.25 mg at the end of gynaecological surgery (Purhonen); for prevention of PONV versus placebo: ephedrine 0.5 mg/kg i.m., propofol […] i.v., laparoscopic surgery; for PONV prevention versus comparators: major gynecological surgery; for PONV prevention versus metoclopramide 10 mg or placebo: granisetron 3 mg, tropisetron 5 mg before start of anesthesia (Naguib)
[4] = for optimal dose for PONV treatment: children older than 2 years, intravenously

CCN(CC)C(=O)C1CN2CCc3cc(OC)c(OC)cc3C2CC1OC(C)=O (stereo not drawn) [benzquinamide, Benzquinamide]
Adverse Effect [1]: Sedation, EPS, restlessness,

CN(C)CCCN1c2ccccc2Sc2ccc(Cl)cc21 [chlorpromazine]
Adverse Effect [1]: Sedation, EPS, hypotension,

CN1CCN(C(c2ccccc2)c2ccccc2)CC1 [cyclizine, Cyclizine]
Adverse Effect [1]: Sedation, dry mouth,

CS(=O)(=O)O.O=C(OC1C[C@@H]2CC3C[C@H](C1)N2CC3=O)c1c[nH]c2ccccc12 (stereo partly drawn) [dolasetron mesylate]
patients with some emesis control (single-arm study): 65%

O=C(O[C@@H]1C[C@@H]2C[C@H]3C[C@H](C1)N2CC3=O)c1c[nH]c2ccccc12 [dolasetron, Dolasetron]
clearance and half-life in children compared with young healthy adult volunteers ([2]; children): increased clearance and a shorter half-life
elimination half-life ([2]; parent compound): 9 min

O=C(CCCN1CC=C(n2c(=O)[nH]c3ccccc32)CC1)c1ccc(F)cc1 [droperidol]
duration of action / effect ([2]; following administration, route not stated): ≤ 24 h
prevention of PONV ([3]; 5 μg/kg i.v. 1 hour before end of anesthesia, children 11 to 15 years): effective in preventing PONV
best anti-emetic effectiveness among groups ([3]; 1.25 mg dose (Fortney)): best anti-emetic effectiveness
prevention of PONV versus i.v. droperidol 1.25 mg or ondansetron 4 mg ([3]; i.v. 0.625 mg at start of anesthesia, outpatient gynecological operations): as effective
PONV prevention, low versus higher dose ([3]; i.v. 0.625 mg immediately following intubation): as effective as intravenous droperidol 1.25 mg
prevention of PONV versus comparators ([3]; i.v. 1.25 mg before end of general anesthesia, female patients, elective orthopaedic surgery): significantly superior to intravenous metoclopromide 10 mg and a saline placebo
prevention of PONV versus comparators ([3]; i.v. 1.25 mg immediately before end of anesthesia, day-stay and major gynaecological surgery): superior to intravenous metoclopramide 10 mg, intravenous domperidone 5 mg and an intravenous saline placebo
patients with no emesis versus i.v. ondansetron 8 mg ([3]; i.v. 2.5 mg, women, inpatient minor gynaecological surgery): more patients
prevention of PONV symptoms [3]: failed to prevent any PONV symptoms
anti-emetic effectiveness versus haloperidol ([3]; intramuscular 5 mg): equivalent anti-emetic effectiveness to intramuscular haloperidol 2 mg
sedation or other adverse effects ([1]; 1.25 mg dose (Fortney)): no increase in sedation or other adverse effects
Adverse Effect [1]: Sedation, EPS,
adverse effects (dystonic reactions, EPS, sedation) ([1]; i.v. 0.625 mg and 1.25 mg): few adverse effects
sedation or other adverse effects ([1]; i.v. 0.625 mg or 1.25 mg, outpatient gynecological operations): no increase in sedation or other adverse effects
anxiety and drowsiness ([1]; i.v. 1.25 mg at the end of gynaecological surgery (Purhonen)): increase in anxiety and drowsiness
adverse effects versus studies with dose less than 2.5 mg ([1]; i.v. 2.5 mg): more adverse effects (i.e. sedation, dizziness)
sedation, droperidol versus ondansetron groups [1]: no difference

CN[C@@H](C)[C@H](O)c1ccccc1 [ephedrine]
prevention of PONV versus placebo [3]: more effective, with no haemodynamic changes, than placebo

CN1C2CCCC1CC(NC(=O)c1nn(C)c3ccccc13)C2 (stereo not drawn) [granisetron, Granisetron]
PONV prevention versus comparators ([3]; 40 μg/kg immediately prior to induction, women during menstruation (Fujii)): more effective than droperidol 25 μg/kg or metoclopramide 0.2 mg/kg
optimal dose for PONV prevention ([3]; adults and children, intravenous, other studies): 0.04 mg/kg
optimum effective prophylactic dose ([3]; adults, i.v. immediately before the start of anesthesia, 0.1, 1 and 3 mg compared): 1 mg
PONV prevention versus comparators ([3]; i.v. 2.5 mg immediately prior to anesthesia, history of postoperative emesis and motion sickness): more effective than droperidol 1.25 mg or metoclopramide 10 mg
PONV prevention versus metoclopramide 10 mg or placebo ([3]; i.v. ondansetron 4 mg): significantly greater anti-emetic effectiveness than metoclopramide or placebo
Adverse Effect [1]: Headache, dizziness

O=C(CCCN1CCC(O)(c2ccc(Cl)cc2)CC1)c1ccc(F)cc1 [haloperidol]
duration of action ([2]; intramuscular): approximately 12 hours
onset time / onset of action ([2]; intramuscular): approximately 30 minutes
effectiveness in PONV ([3]; 7 μg/kg i.v. and 0.5 to 4.0 mg i.m. for prevention, 1 mg i.m. for treatment): effective in PONV, with little sedative effect
Adverse Effect [1]: Sedation, EPS,

O=C(OC1CC2CC3CC(C1)N2CC3O)c1c[nH]c2ccccc12 (stereo not drawn) [hydrodolasetron]
share of the anti-emetic effect ([2]; active metabolite of dolasetron): 87%
mean half-life ([2]; intravenous form): ~8.3 h
mean half-life ([2]; oral form): approximately 7.1 hours

OCCOCCN1CCN(C(c2ccccc2)c2ccc(Cl)cc2)CC1 (stereo not drawn) [hydroxyzine, Hydroxyzine]
incidence of PONV versus droperidol ([3]; i.m. 100 mg after induction of anesthesia, non-premedicated patients): decrease the incidence of PONV more effectively than intramuscular droperidol 2.5 mg
Adverse Effect [1]: Sedation, dry mouth,

Cc1ncc2n1-c1ccc(Cl)cc1C(c1ccccc1F)=NC2 [midazolam, Midazolam]
prevention of vomiting after tonsillectomy ([3]; 75 μg/kg i.v. after induction of anesthesia, children): effective for the prevention of vomiting

Cc1nccn1CC1CCc2c(c3ccccc3n2C)C1=O (stereo not drawn) [ondansetron, Ondansetron]
optimal dose for PONV treatment ([4]; <40 kg): 0.1 mg/kg
optimal dose for PONV treatment ([4]; >40 kg): 4 mg
treatment of PONV versus comparators ([4]; i.v. 4 mg, following gynecological laparoscopy (Polati)): better efficacy than intravenous metoclopramide 10 mg or placebo
control of PONV by repeat dose ([4]; repeat i.v. 4 mg in PACU after failed prophylaxis with i.v. 4 mg (Kovac)): does not appear to offer additional control of PONV
control of vomiting and nausea during subsequent days of chemotherapy (single agent (Barbounis)): progressive decline
cases in which effective (single agent, day 1 of chemotherapy administration (Barbounis)): about 76%
optimal effective dose for PONV ([3]; adults, intravenously at the start of anesthesia): 4 mg
optimal effective dose for PONV ([3]; adults, orally 1 to 2 hours before anesthesia): 8 mg
optimal dose for PONV prevention ([3]; children older than 2 years, orally): 0.1 mg/kg
prevention of vomiting versus comparators ([3]; i.v. 0.1 mg/kg, children undergoing adenotonsillectomy): more effective in preventing vomiting than dimenhydrimate 0.5 mg/kg or placebo
efficacy by timing of administration ([3]; i.v. 4 mg, end of surgery versus before induction of anesthesia): significantly better when administered at the end of surgery
patients with emesis versus i.v. metoclopramide 10 mg or droperidol 0.625 mg ([3]; i.v. 8 mg prior to anesthesia (Alon and Himmelseher)): fewer
difference between ondansetron and dexamethasone administered alone ([3]; i.v. ondansetron 4 mg, dexamethasone 8 mg, major gynaecological surgery): No difference
PONV prevention versus metoclopramide 10 mg or placebo ([3]; i.v. ondansetron 4 mg): significantly greater anti-emetic effectiveness than metoclopramide or placebo
incidence of adverse events after additional dose ([1]; additional 4 mg postoperatively): did not result in an increased incidence of adverse events
Adverse Effect [1]: Headache, dizziness
sedation, droperidol versus ondansetron groups [1]: no difference

OCCN1CCN(CCCN2c3ccccc3Sc3ccc(Cl)cc32)CC1 [perphenazine]
efficacy in preventing PONV versus comparator ([3]; children after tonsillectomy, prophylactic 70 μg/kg): more effective than dexamethasone 150 μg/kg; also recorded: equally as effective as ondansetron 150 μg/kg
emesis after tonsillectomy ([3]; paediatric patients, prophylactic i.v. 70 μg/kg): decreased emesis
Adverse Effect [1]: Sedation, EPS, hypotension,

CC(CN1c2ccccc2Sc2ccccc21)N(C)C (stereo not drawn) [promethazine]
Adverse Effect [1]: Sedation, EPS, hypotension,

CC(C)c1cccc(C(C)C)c1O [propofol]
prevention of PONV by anesthetic used ([3]; 0.5 mg/kg i.v., outpatient laparoscopic cholecystectomy): more effective in preventing PONV after sevoflurane anesthesia than desflurane anesthesia
plasma concentration necessary to obtain a 50% reduction in postoperative nausea ([3]; 10 mg i.v. bolus followed by infusion of 10 μg/kg/min): 343 ng/L
overall occurrence of PONV versus 10% Intralipid ([3]; 20-hour postoperative 0.1 ml/kg/hour infusion): less
prevention of PONV versus placebo [3]: more effective, with no haemodynamic changes, than placebo
effect on PONV ([3]; i.v. bolus 0.1 mg/kg followed by constant infusion of 1 mg/kg/hour): no effect on PONV
PONV prophylaxis versus thiopentone 1.0 mg/kg ([3]; i.v. subhypnotic 0.5 mg/kg, first 6 hours after middle ear surgery): significantly better PONV prophylaxis against retching and vomiting
prevention of PONV versus ondansetron ([3]; intraoperative intravenous, first 6 hours postoperatively): equally as effective as intravenous ondansetron 4 mg

CN1[C@@H]2C[C@@H](OC(=O)[C@H](CO)c3ccccc3)C[C@H]1[C@@H]1O[C@@H]12 [scopolamine, Scopolamine]
Adverse Effect [1]: Sedation, dry mouth,

CN1[C@@H]2CC[C@H]1C[C@@H](OC(=O)c1c[nH]c3ccccc13)C2 [tropisetron, Tropisetron]
optimal effective dose for treatment of PONV ([4]; intravenous, abdominal and non-abdominal surgeries (Alon)): 2 mg
patients with response (single agent, first study): about 80%
prevention of PONV ([3]; 5 mg i.v. before start of anesthesia, breast and gynaecological surgery): effective for prevention of PONV
PONV prevention versus metoclopramide 10 mg or placebo ([3]; i.v. ondansetron 4 mg): significantly greater anti-emetic effectiveness than metoclopramide or placebo
prevention of PONV symptoms [3]: effectively prevented vomiting, but not nausea and retching
Adverse Effect [1]: Headache, dizziness
